Laboratory results from US20080020932A1, “Method for Combating Weeds” (Bayer Cropscience AG, priority 2004, published 2008).

Tested on: Apera spica-venti
Test: Postemergence field trials in winter wheat: herbicidal activity
Type: in vivo
Conditions: field trials carried out
Protocol: The compound of the formula (I) was tested under field conditions in Winter wheat in Germany and Poland against the economically significant weed Apera spica-venti. The plot trials were instituted on cultivated land used agriculturally, and the conditions of cultivation and climate can be regarded as being representative over the period under investigation. Areas with a particularly high weed population were selected preferentially.
The active ingredient was applied postemergence (spring) across the area by spraying with a medium droplet size. An appropriate preparation of active ingredient was produced by formulating the active ingredient as a 10 WP (10% w/w water-dispersible powder), mixed with the safener mefenpyr-diethyl as a 15 WG (15% w/w water-dispersible granules) and with alkyl ether sulfates as an additive, and applied with customary amounts of water.
For the assessment of crop tolerance, instances of plant growth inhibition or lightening of the leaf area were rated in % damage in comparison to the development of the untreated control, 1 to 7 weeks after treatment. The herbicidal activity was assessed at a number of times after treatment, based on the development of weeds, as a % reduction in comparison to the untreated control. For these purposes: • 0%=no damage to crop or no herbicidal action; • 100%=total destruction of the crop or of the weeds, respectively.

## COC(=O)c1csc(C)c1S(=O)(=O)NC(=O)n1nc(OC)n(C)c1=O [compound of the formula (I), 5-methoxy-4-methyl-2-[(4-methoxycarbonyl-2-methylthien-3-yl)sulfonylaminocarbonyl]-2,4-dihydro-3H-1,2,4-triazol-3-one]
  control of the annual varieties of Apera spica-venti in cereals (in words): particularly effective
